# Assay results published in paper PMC11437215 (Nature Communications, 2024).
# Experiments:
# [1] = system: 9B9 (G20-specific) and IIT-3 (E21-specific) CD4+ T cell hybridomas; assay type: cell-based, mouse; conditions: C3.g7 APC pulsed with antigen; IL-2 (Supplementary Fig. 1a, b)
# [2] = system: type 1 diabetes progression; conditions: autoantibody-positive (stage 1) T1D patients; cited from earlier work
# [3] = system: tetramer-binding CD4+ T cells; test: Flow cytometry of anergy markers CD73 and FR4 in tetramer-binding CD4+ T cells; assay type: cell-based, NOD and NOD.Ins2−/− mice; conditions: SLOs (Supplementary Fig. 9a)
# [4] = system: CD4+ T cell clones BDC2.5 and BDC6.9; conditions: cited from earlier work
# [5] = system: popliteal lymph node T cells (IFNγ, IL-2); test: ELISPOT recall after peptide immunization; conditions: immunized with B:9–23 (Fig. 7c)
# [6] = system: 9B9, IIT-3, CP1- and CP2-specific CD4+ T cell hybridomas; assay type: cell-based, NOD and NOD.B16A mice; conditions: 8 to 10-week-old female NOD mice
# [7] = system: 9B9, IIT-3, CP1- and CP2-specific CD4+ T cell hybridomas; assay type: cell-based, NOD and NOD.B16A mice; conditions: mTECs from NOD or NOD.B16A mice
# CD4+ T cells in SLOs = test: Quantification of tetramer-binding CD4+ T cells in SLOs; assay type: cell-based; conditions: SLOs of 6–8-week-old female NOD mice
# I-A^g7 = conditions: Q-to-E conversion; cited from earlier work
# [8] = system: tetramer-binding CD4+ T cells; test: Flow cytometry of FOXP3 and CD44 in tetramer-binding CD4+ T cells; assay type: cell-based, NOD and NOD.Ins2−/− mice; conditions: NOD mice (Fig. 6b)
# [9] = system: crinosomes in pancreatic β cells; test: Electron microscopy count of crinophagic granules; assay type: in vivo, NOD mice
# [10] = system: crinosome subcellular fraction of β cells; test: Crinosome peptidome by mass spectrometry; set-up: species or system NOD mice
# [11] = system: 9B9 T cell (G20-specific); test: Presentation of G20 by dispersed islet cells; conditions: chloroquine vs PBS; B:9–23 10 µM
# [12] = system: autoimmune diabetes in female NOD mice; test: Diabetes development; conditions: chloroquine group, all PBS-treated mice became diabetic
# [13] = system: 9B9 T cell (G20-specific); test: Presentation of G20 by blood leukocytes after glucose challenge; assay type: cell-based, NOD mice
# [14] = system: insulin epitopes G20 and E21 in crinosome and DCG subcellular fractions; test: Granule-based antigen presentation assay: crinosome; assay type: cell-based, NOD mice; conditions: chloroquine vs PBS
compound,measurement,setting,value
TEGVEALYLVCGGGS [Syn-G20],responses of the 9B9 (G20-specific) and IIT-3 (E21-specific) hybridomas,[1],exclusively reacted to their corresponding epitopes
CCN(CCO)CCCC(C)Nc1ccnc2cc(Cl)ccc12 (centres unmarked) [hydroxychloroquine],autoantibody acquisition and titers of anti-insulin and anti-GAD antibodies,[2],reduced
same,progression to stage 2 T1D,[2],did not delay
LQTLAL-WSRMD [2.5HIP],expression of CD73 and FR4 in the FOXP3−CD44hi subset of tetramer-binding T cells,[3],much less expression of CD73 and FR4
same,agonist activity on CD4+ T cell clones BDC2.5 and BDC6.9,[4],strong agonists
insulin,T cell responses upon recall in NOD.Ins2−/− mice,[5],significantly enhanced
same,T cell responses upon recall in WT NOD mice,[5],minimal
same,responses of the 9B9 (G20-specific) and IIT-3 (E21-specific) hybridomas,[1],Only the IIT-3 but not the 9B9 T cell responded
same,presentation of E21 and G20 by dispersed islets pulsed with antigen,[6],"only presentation of E21, but not G20, was enhanced"
same,presentation of E21 and G20 by mTECs pulsed with antigen,[7],"strong presentation of E21, whereas presentation of G20 was minimal"
LQTLAL-NAARD [6.9HIP],expression of CD73 and FR4 in the FOXP3−CD44hi subset of tetramer-binding T cells,[3],much less expression of CD73 and FR4
same,agonist activity on CD4+ T cell clones BDC2.5 and BDC6.9,[4],strong agonists
TQSPLLKRQLTSFIEKGQE [DBP],tetramer-binding cells per million CD4+ T cells,CD4+ T cells in SLOs,less than 5 per million CD4^+ T cells
TEGEALYLVCGEGGS [Syn-E21],T cell responses upon recall in NOD.Ins2−/− mice,[5],significantly enhanced
same,T cell responses upon recall in WT NOD mice,[5],minimal
same,responses of the 9B9 (G20-specific) and IIT-3 (E21-specific) hybridomas,[1],exclusively reacted to their corresponding epitopes
GDLQTLALEVARE [CP1d],binding affinity to I-A^g7 relative to native CP1,I-A^g7,enhanced the binding affinity
VEALYLVCG [G20],expression of CD73 and FR4 in the FOXP3−CD44hi subset of tetramer-binding T cells,[3],much less expression of CD73 and FR4
same,FOXP3 phenotype of tetramer-binding CD4+ single-positive thymocytes,[8],mostly FOXP3^− conventional T cells
"CCN(CC)CCCC(C)Nc1ccnc2cc(Cl)ccc12 (centres unmarked) [Chloroquine, chloroquine]",change of crinosome-like vesicles in β cells,"[9]; male and female NOD mice, short-term chloroquine vs PBS",reduced by half
same,diminishing of crinophagic granules and associated peptide production,[9]; young NOD mice (discussion summary),about 50%
same,overall HIP abundance in crinosomes,[10]; chloroquine vs PBS,significant decrease
same,relative abundance of deamidated insulin C-peptides in the crinosome peptidome,[10]; chloroquine vs PBS,significant reduction
same,number of peptides in the crinosome peptidome,"[10]; chloroquine vs PBS, 1.2 × 10^6 β cells per condition",significant reduction
same,HIPs identified in crinosomes,"[10]; mice given chloroquine, ten HIPs in PBS control",only one HIP
same,"PTMs in the crinosome peptidome (methionine oxidation, deamidation, dehydration, phosphorylation, formylation)","[10]; peptide-spectra matches, chloroquine vs PBS",reduced
same,G20 presentation by dispersed islet cells pulsed with exogenous B:9–23 peptide,[11],no difference
same,mice remaining diabetes free by 35 weeks of age,[12],about 33%
same,presentation of G20 by blood leukocytes during pulse with exogenous B:9–23,"[13]; chloroquine vs PBS, B:9–23 10 µM",without affecting
same,duration of the effect in inhibiting G20 presentation,[13]; preliminary experiments,about three days
same,effect on presentation of both epitopes in DCGs,[14],did not influence
same,reduction in the presentation level of both G20 and E21 in the crinosome fraction,[14]; male and female NOD mice,~ 50%
ILSVHVATAASQDS [ZnT8],tetramer-binding cells per million CD4+ T cells,CD4+ T cells in SLOs,less than 5 per million CD4^+ T cells
EALYLVCGE [E21],expression of CD73 and FR4 in the FOXP3−CD44hi subset of tetramer-binding T cells,[3],high expression of both CD73 and FR4
same,FOXP3 phenotype of tetramer-binding CD4+ single-positive thymocytes,[8],majority
